ChEMBL document CHEMBL1143903, “Synthesis of novel spiropyrrolizidines as potent antimicrobial agents for human and plant pathogens” (2008)
In brackets after ≈: the same amount, converted by molar mass.

Key:
Proteus vulgaris = assay: Antibacterial activity against Proteus vulgaris by well diffusion method; type: functional
Proteus mirabilis = assay: Antibacterial activity against Proteus mirabilis by well diffusion method; type: functional
Staphylococcus aureus = assay: Antibacterial activity against Staphylococcus aureus by well diffusion method; type: functional
Salmonella typhi = assay: Antibacterial activity against Salmonella typhi by well diffusion method; type: functional, Salmonella enterica subsp. enterica serovar Typhi; details: Salmonella enterica
Fusarium oxysporum = assay: Antifungal activity against Fusarium oxysporum by poison food technique; type: functional
Macrophomina phaseolina = assay: Antifungal activity against Macrophomina phaseolina by poison food technique; type: functional

Row | Compound | MIC (Proteus vulgaris) | MIC (Proteus mirabilis) | MIC (Staphylococcus aureus) | MIC (Salmonella typhi) | MIC (Fusarium oxysporum) | MIC (Macrophomina phaseolina)
1 | COc1ccc([C@H]2C3CCCN3[C@@]3(C(=O)Nc4ccccc43)[C@]23CCC2c4ccccc4NC2C3=O)cc1 (some centres not stated) | 15 µg/mL (≈ 29.7 µM) | 25 µg/mL (≈ 49.4 µM) | 40 µg/mL (≈ 79.1 µM) | 45 µg/mL (≈ 89 µM) | 75 µg/mL (≈ 148 µM) | 25 µg/mL (≈ 49.4 µM)
2 | O=C1C2Nc3ccccc3C2CC[C@@]12[C@@H](c1ccc([N+](=O)[O-])cc1)C1CCCN1[C@@]21C(=O)Nc2ccccc21 (some centres not stated) | 35 µg/mL (≈ 67.2 µM) | 55 µg/mL (≈ 106 µM) | 25 µg/mL (≈ 48 µM) | 40 µg/mL (≈ 76.8 µM) | 75 µg/mL (≈ 144 µM) | 100 µg/mL (≈ 192 µM)
3 | O=C1C2Nc3ccccc3C2CC[C@@]12[C@@H](c1ccc(Br)cc1)C1CCCN1[C@@]21C(=O)Nc2ccccc21 (some centres not stated) | 25 µg/mL (≈ 45.1 µM) | 30 µg/mL (≈ 54.1 µM) | 45 µg/mL (≈ 81.2 µM) | 30 µg/mL (≈ 54.1 µM) | 50 µg/mL (≈ 90.2 µM) | 25 µg/mL (≈ 45.1 µM)
4 | O=C1C2Nc3ccccc3C2CC[C@@]12[C@@H](c1ccc(Cl)cc1)C1CCCN1[C@@]21C(=O)Nc2ccccc21 (some centres not stated) | 10 µg/mL (≈ 19.6 µM) | 35 µg/mL (≈ 68.6 µM) | 20 µg/mL (≈ 39.2 µM) | 30 µg/mL (≈ 58.8 µM) | 125 µg/mL (≈ 245 µM) | 75 µg/mL (≈ 147 µM)
5 | Cc1ccc([C@H]2C3CCCN3[C@@]3(C(=O)Nc4ccccc43)[C@]23CCC2c4ccccc4NC2C3=O)cc1 (some centres not stated) | 40 µg/mL (≈ 81.7 µM) | 65 µg/mL (≈ 133 µM) | 45 µg/mL (≈ 91.9 µM) | 35 µg/mL (≈ 71.5 µM) | 75 µg/mL (≈ 153 µM) | 50 µg/mL (≈ 102 µM)
6 | O=C1C2Nc3ccccc3C2CC[C@@]12[C@@H](c1ccccc1)C1CCCN1[C@@]21C(=O)Nc2ccccc21 (some centres not stated) | 30 µg/mL (≈ 63.1 µM) | 55 µg/mL (≈ 116 µM) | – | 20 µg/mL (≈ 42.1 µM) | 125 µg/mL (≈ 263 µM) | 50 µg/mL (≈ 105 µM)
7 | CN(C)c1ccc([C@H]2C3CCCN3[C@@]3(C(=O)Nc4ccccc43)[C@]23CCC2c4ccccc4NC2C3=O)cc1 (some centres not stated) | 45 µg/mL (≈ 86.8 µM) | 50 µg/mL (≈ 96.4 µM) | 35 µg/mL (≈ 67.5 µM) | 35 µg/mL (≈ 67.5 µM) | 150 µg/mL (≈ 289 µM) | 75 µg/mL (≈ 145 µM)
8 | COC(=O)Nc1nc2ccccc2[nH]1 [CARBENDAZIM] | – | – | – | – | 18 µg/mL (≈ 94.1 µM) | 15 µg/mL (≈ 78.5 µM)
9 | CN(C)[C@@H]1C(O)=C(C(N)=O)C(=O)[C@@]2(O)C(O)=C3C(=O)c4c(O)cccc4[C@@](C)(O)[C@H]3C[C@@H]12 [TETRACYCLINE] | 15 µg/mL (≈ 33.8 µM) | 20 µg/mL (≈ 45 µM) | 10 µg/mL (≈ 22.5 µM) | 15 µg/mL (≈ 33.8 µM) | – | –
